In paper PMC5827777, “Synthesis and biological evaluation of RGD and isoDGR peptidomimetic-α-amanitin conjugates for tumor-targeting” (Beilstein Journal of Organic Chemistry, 2018):

Key:
[1] = tested on: U87 cells (human glioblastoma, αVβ3+); experiment: cells; format: cell-based
Method: The cell lines were treated with different concentrations of the free drug α-amanitin and conjugates 7–11 for 96 hours. […]
described recently.[S1] The SNP profiles matched known profiles or were unique. The purity of the cell lines was validated using the Multiplex cell Contamination Test by Multiplexion (Heidelberg, Germany) as described recently.[S2] No mycoplasma, SMRV or interspecies contamination was detected. U87-MG, MDA-MB 468 and A549 cells were cultivated continuously for not more than 3 months in MEM Eagle´s, DMEM or Ham´s F12 medium, respectively, supplemented with 10% heat inactivated fetus calf serum, L-glutamine and antibiotics. Cell lines were maintained at 37 °C and 5% CO2 in a high humidity atmosphere.
Cell therapy and viability assay
Cell viability assays were performed in U87-MG, A549 and MDA-MB 468 cell lines according to the following procedure: 2 × 10^3 cells/well were plated in 96-well black clear bottom plates (Perkin Elmer) and incubated overnight. 1:5 serial dilutions of compounds 7–11 were prepared in cell culture media. The compounds were added to the cell culture and incubated for additional 96 h. Starting concentration of compounds 7–11 in the wells was 1 × 10−5 M and cell viability was determined with the CellTiterGlo 2.0 assay (Promega) in accordance to manufacturer’s instructions. The cell viability was calculated in relation to the non-treated controls for each cell line. All samples were measured in triplicate. Data analysis was carried out using software GraphPad Prism (GraphPad Software Inc., La Jolla, CA, USA).
Competition experiment of compounds 10 and 11
The competition experiment s were performed in U87-MG and MDA-MB 468 cell lines according to the following procedure: 2 × 10^3 cells/well were plated in 96-well black clear bottom plates (Perkin Elmer) and incubated overnight. A solution containing 1 × 10−4 M of the conjugates 10 or 11 and 5 × 10−3 M of cilengitide (50-fold excess of ligand in comparison to the conjugate) was prepared in the growth medium and 1:5 serial dilutions were prepared in cell culture media. The compounds were added to cell culture and incubated for 96 h. The starting concentration of the compounds in the wells was 0.01 mM whereas that of cilengitide was 0.5 mM. The cell viability was determined with the CellTiterGlo 2.0 assay (Promega) in accordance to manufacturer’s instructions and the viability was calculated in relation to the non-treated controls for each cell line. All samples were measured in triplicate. Data analysis was carried out using software GraphPad Prism (GraphPad Software Inc., La Jolla, CA, USA).
[S1] F. Castro, W. G. Dirks, S. Fähnrich, A. Hotz-Wagenblatt, M. Pawlita, M. Schmitt, Int. J. Cancer […]
[S2] M. Schmitt, M. Pawlita, Nucleic Acids Res. 2009, 37, e119.

[2] = biological target: T1, Recombinant human integrin αVβ3 (Homo sapiens, UniProt P05106+P06756); experiment: Inhibition of biotinylated vitronectin binding to purified αVβ3 receptor (solid phase receptor binding assay); settings: conjugates, Table 2; mean ± SD of triplicate determinations
T1 construct: purchased R&D Systems, Minneapolis, MN, USA
Method: Conjugates 7–11 were evaluated for their ability to inhibit biotinylated vitronectin binding to the purified αVβ3 receptor. Screening assays were performed by incubating the immobilized integrin receptor with solutions of the cyclo[DKP-RGD]-α-amanitin and cyclo[DKP-isoDGR]-α-amanitin conjugates 7–11 at different concentrations (10^−12 to 10^−5 M) in the presence of biotinylated vitronectin (1 µg mL^−1) and measuring bound vitronectin. […]
to assist the dissolution). The solution obtained was filtered (polypropylene, 0.45 μm, 13 mm ø, PK/100) and injected in the HPLC, affording purified products. Purity analyses were carried on a Dionex Ultimate 3000 instrument equipped with a Dionex RS Variable Wavelenght detector (column: Atlantis® Prep T3 OBDTM 5 μm 19 × 100 mm). The analyte (1 mg) was dissolved in 1 mL of H2O and was injected using the same gradient used in the purification step. The analysis of the integrals and the relative percentage of purity were performed with the software Chromeleon 6.80 SR11 Build 3161. Also, preparative HPLC LaPrep∑ equipped with autosampler AS3950 and a Phenomenex Luna C-18(2) column, 10 µm, 250 × 21.2 mm, with precolumn at 30 mL/min flow rate and analytical HPLC performed on Hitachi Chromaster (column oven Chromaster 5310, pump Chromaster 5110, autosampler Chromaster 5210, DAD Chromaster 5430) equipped with a Phenomenex Luna C-18(2) column, 10 µm, 250 × 4.6 mm, with precolumn at 1.4 mL/min flow rate were used. Freeze-drying: The product was dissolved in water and frozen with dry ice. The freeze-drying was carried out at least for 48 h at −50 °C using the instrument 5Pascal Lio5P DGT.
Solid phase receptor binding assays
Recombinant human integrin αVβ3 (R&D Systems, Minneapolis, MN, USA) was diluted to 0.5 µg/mL in coating buffer containing 20 mM Tris-HCl (pH 7.4), 150 mM NaCl, 1 mM MnCl2, 2 mM CaCl2, and 1 mM MgCl2. […] Absorbance at 415 nm was read in a SynergyTM HT Multi-Detection Microplate Reader (BioTek Instruments, Inc.). […]

T1 sequence (P06756 31-992 limits assumed): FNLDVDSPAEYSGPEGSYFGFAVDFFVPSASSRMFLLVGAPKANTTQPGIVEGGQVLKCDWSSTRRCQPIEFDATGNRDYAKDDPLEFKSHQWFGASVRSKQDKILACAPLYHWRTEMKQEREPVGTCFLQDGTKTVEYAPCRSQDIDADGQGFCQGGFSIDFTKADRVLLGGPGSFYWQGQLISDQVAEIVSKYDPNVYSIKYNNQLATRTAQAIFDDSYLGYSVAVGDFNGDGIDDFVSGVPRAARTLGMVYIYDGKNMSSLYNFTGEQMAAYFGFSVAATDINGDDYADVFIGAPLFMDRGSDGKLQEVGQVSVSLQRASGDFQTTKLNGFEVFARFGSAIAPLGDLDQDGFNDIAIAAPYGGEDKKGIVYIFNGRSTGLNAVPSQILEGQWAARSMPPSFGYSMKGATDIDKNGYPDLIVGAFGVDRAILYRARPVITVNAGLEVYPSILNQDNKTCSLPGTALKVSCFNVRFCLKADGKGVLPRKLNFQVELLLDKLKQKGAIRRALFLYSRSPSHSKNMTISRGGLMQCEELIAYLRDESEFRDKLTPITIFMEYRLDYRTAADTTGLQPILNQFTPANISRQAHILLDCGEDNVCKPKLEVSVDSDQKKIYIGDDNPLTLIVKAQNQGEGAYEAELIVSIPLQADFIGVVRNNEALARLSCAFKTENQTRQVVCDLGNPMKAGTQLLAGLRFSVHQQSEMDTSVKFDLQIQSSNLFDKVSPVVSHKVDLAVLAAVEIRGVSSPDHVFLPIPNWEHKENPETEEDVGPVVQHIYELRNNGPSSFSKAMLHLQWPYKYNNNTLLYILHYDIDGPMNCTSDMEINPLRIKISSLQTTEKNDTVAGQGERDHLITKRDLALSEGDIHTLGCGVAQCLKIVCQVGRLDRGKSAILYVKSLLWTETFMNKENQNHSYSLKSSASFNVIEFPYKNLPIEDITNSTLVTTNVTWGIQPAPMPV
T1 sequence (P05106 27-718 limits assumed): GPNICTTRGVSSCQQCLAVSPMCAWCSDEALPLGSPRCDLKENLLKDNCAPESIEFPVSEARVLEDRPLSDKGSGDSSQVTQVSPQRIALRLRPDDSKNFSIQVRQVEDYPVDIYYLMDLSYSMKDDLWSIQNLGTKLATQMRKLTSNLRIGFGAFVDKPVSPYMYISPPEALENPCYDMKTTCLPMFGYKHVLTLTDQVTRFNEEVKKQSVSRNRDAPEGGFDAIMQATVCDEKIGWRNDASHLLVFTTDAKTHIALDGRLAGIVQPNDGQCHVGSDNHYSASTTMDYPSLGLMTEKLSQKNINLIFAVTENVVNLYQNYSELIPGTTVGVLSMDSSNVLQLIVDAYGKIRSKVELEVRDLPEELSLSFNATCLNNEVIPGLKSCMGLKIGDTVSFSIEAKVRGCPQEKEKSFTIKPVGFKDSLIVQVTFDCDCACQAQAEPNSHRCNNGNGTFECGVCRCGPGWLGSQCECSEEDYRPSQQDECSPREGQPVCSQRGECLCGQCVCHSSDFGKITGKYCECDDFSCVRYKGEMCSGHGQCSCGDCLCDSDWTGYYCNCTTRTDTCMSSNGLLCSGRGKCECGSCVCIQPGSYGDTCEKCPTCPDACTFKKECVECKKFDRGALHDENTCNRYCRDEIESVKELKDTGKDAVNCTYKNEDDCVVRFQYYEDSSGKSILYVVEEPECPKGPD

Structure (SMILES): CC[C@H](C)[C@@H]1NC(=O)CNC(=O)[C@@H]2Cc3c([nH]c4cc(OCc5ccc(NC(=O)[C@H](C)NC(=O)[C@@H](NC(=O)CCCC(=O)NCc6ccc(CN7C(=O)[C@H]8CC(=O)N[C@H](C(=O)O)CC(=O)NCC(=O)N[C@@H](CCCNC(=N)N)C(=O)NC[C@H]7C(=O)N8)cc6)C(C)C)cc5)ccc34)[S@+]([O-])C[C@H](NC(=O)CNC1=O)C(=O)N[C@@H](CC(N)=O)C(=O)N1C[C@H](O)C[C@H]1C(=O)N[C@@H]([C@@H](C)[C@@H](O)CO)C(=O)N2 [Compound 10, cyclo[DKP-isoDGR]-Val-Ala-α-amanitin]
- IC50 ([1]; 96 hours treatment, triplicate, read-out: IC50 U87 (αVβ3+), inhibition of cell viability): 143 ± 33.8 nM
- more potent than α-amanitin ([1]; in U87, A549 and MDA-MB-468 cell lines, Table 3 entry 1 vs entry 5): 2.4–3.1 times
- IC50 [2]: 6.4 ± 1.9 nM
